We go through two compounds from EP0043274A2, “Antithrombotic treatment” (priority 1980, dated 1982).

Where two headings read alike, the source gives them in different places.

Series [1] relates to platelet rich plasma. In words: Platelet aggregation in platelet rich plasma, ADP stimulus (Example 25). The series is classed as cell-based. To be noted: plasma first treated with the compound. The source says: Plasma was centrifuged at 1000 r.p.m. (200 g) to prepare a platelet rich plasma. Using adosine diphosphate (ADP) as a stimulous, rapid aggregation of platelets in the plasma was efected. On the other hand, when such plasma is first treatd with (a) tetramethyl ammonium sulfite, (b) tetramethyl ammonium bisulfite, and then (c) tetrabutyl

In series [2] the target is T1, F IX (Homo sapiens, UniProt P00740).
T1 construct: from tissue; host or cells: human plasma
T1 sequence (P00740 47-461): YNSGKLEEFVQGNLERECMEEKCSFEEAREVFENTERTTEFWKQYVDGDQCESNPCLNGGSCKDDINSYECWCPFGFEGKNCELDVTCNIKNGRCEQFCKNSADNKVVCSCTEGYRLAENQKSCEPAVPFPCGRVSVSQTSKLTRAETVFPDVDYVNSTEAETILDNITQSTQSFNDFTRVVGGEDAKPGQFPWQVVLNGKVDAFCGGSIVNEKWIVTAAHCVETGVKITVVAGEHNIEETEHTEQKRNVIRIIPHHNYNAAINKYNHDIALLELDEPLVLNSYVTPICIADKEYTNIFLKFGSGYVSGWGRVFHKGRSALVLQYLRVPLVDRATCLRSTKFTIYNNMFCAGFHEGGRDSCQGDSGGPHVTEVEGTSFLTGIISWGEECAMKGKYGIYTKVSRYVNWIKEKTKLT
In words: Coagulation factor assay (Biggs): Factor IX. The series is classed as biochemical. To be noted: single experiment; control 50. The method, then: The effect of U.S.P. grade sodium bisulfite on blood coagulation factors is evaluated by standard procedures (Biggs) and the results are shown in Table III below.
References for PT, PTT, and assays of all the coagulation factors can be found in a standard textbook, entitled "Human Blood Coagulation, Haemostasis and Thrombosis", edited by Rosemary Biggs, published by Blackwell Scientific Publications, Oxford, England (2nd edition), pages 670-705, 1976.

The target in series [3] is T2, FIBRINOGEN (Homo sapiens, UniProt P02671+P02675+P02679).
T2 construct: from tissue; host or cells: human plasma
T2 sequence (P02671 20-629 limits assumed): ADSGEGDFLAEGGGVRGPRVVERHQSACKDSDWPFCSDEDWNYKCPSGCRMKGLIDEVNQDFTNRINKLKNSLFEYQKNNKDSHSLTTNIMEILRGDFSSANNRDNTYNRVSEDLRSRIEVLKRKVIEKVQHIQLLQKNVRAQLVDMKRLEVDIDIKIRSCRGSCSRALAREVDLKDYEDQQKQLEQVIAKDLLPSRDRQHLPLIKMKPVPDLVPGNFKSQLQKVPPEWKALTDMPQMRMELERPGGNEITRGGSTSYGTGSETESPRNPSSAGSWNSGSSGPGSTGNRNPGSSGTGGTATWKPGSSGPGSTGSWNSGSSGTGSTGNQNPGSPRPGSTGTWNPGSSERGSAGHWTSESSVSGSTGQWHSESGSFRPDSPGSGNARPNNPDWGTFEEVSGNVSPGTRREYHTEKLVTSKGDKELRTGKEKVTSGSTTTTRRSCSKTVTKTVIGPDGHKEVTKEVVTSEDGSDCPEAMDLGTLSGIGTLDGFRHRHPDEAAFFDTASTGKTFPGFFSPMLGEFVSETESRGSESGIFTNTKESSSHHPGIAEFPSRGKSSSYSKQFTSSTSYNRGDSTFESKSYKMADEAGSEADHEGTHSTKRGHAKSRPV
T2 sequence (P02675 31-491): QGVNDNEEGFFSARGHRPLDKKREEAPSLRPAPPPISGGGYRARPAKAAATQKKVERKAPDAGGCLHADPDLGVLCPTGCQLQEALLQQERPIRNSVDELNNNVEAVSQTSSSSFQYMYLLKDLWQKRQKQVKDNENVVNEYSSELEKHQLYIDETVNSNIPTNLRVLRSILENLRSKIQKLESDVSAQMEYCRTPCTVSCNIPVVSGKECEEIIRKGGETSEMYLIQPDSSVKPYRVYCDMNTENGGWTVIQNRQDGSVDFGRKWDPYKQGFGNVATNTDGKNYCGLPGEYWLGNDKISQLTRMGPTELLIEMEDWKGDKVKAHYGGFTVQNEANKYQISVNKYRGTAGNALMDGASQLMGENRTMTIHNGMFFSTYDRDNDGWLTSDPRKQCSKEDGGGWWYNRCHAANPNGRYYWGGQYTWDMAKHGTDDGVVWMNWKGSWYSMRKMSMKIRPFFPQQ
T2 sequence (P02679 27-453): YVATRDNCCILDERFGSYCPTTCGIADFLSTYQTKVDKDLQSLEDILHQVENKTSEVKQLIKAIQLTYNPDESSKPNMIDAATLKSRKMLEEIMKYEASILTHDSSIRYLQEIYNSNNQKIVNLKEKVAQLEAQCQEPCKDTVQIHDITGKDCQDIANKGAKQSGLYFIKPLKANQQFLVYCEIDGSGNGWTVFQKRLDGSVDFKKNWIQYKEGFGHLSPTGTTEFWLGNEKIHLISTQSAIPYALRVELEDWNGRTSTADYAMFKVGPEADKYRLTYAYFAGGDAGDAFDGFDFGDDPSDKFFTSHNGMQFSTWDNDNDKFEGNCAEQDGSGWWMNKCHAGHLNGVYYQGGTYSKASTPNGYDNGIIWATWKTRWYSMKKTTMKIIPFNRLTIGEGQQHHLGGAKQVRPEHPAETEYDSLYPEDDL
Put plainly: Coagulation factor assay (Biggs): fibrinogen. Format: biochemical. To be noted: mean of 2 experiments; control 205.

Series [4] has as its system human plasma. The series is classed as biochemical.
Series [5] relates to thrombus formation in the jugular vein. Put plainly: I 125 fibrinogen technique, damaged jugular vein (venous thrombosis), continuous infusion. The series is classed as in vivo, rabbits. On the procedure: The anti venous thrombotic effect of sodium bisulfite is evaluated in rabbits by using I ^125 fibrinogen technique as described in an article in "Archives of Surgery" Vol. 104, pg. 152 (1972).
The rabbit was continuously infused with aqueous sodium bisulfite solution at the rate of […]. (5.154 gram per hour) (animal body weight 2.3 kg) for a time of five hours. After 5 hours, the animal was sacrificed and the radioactive fibrinogen accumulated in the damaged jugular vein was determined. The radioactivity on the contra-lateral (undamaged) jugular vein was also determined to serve as a control. Concurrently, another rabbit had experienced the same procedure but received only a standard sodium chloride solution as a control. The rabbit from the normal saline solution has seven times as much radioactivity as his counterpart infused with sodium bisulfite.
Two jugular veins on a normal, healthy rabbit are exposed and one of the veins is systematically damaged by clamping in two longitudinally spaced places. The rabbit is then continuously infused with aqueous sodium formaldehyde bisulfite at the rate of […] (5.154 gram per hour) (animal body weight 2.3 kg). The rabbit is then injected with fibrinogen labeled with I^125. After 5 hours, the damaged jugular vein is evaluated for radioacive count with a Geiger counter.
This iodine 125 evaluation technique is described by Kakkar in Archieves of Surgery, Vol. 104, pg. 152 (1972) and by Kelton, J.G. et al, Journal of Clinical Investigation, Vol. 62, pgs. 892-895, (1978). […] Other rabbits, similarly evaluated, died, apparently because of overdose by the infustion technique.

For series [6], the system named is human platelet rich plasma. In words: Platelet aggregation in platelet rich plasma, platelet aggregometer (technique of Born). The series is classed as cell-based. To be noted: platelet rich plasma from men. The text has this:
A present preference for purposes of evaluating an - antithrombotic effect is to withdraw samples of blood from a patient undergoing treatment and to measure platelet aggregation. One method is described in the paper by Born in Nature 194, pp. 927-929 (1962), which may be used for this purpose if desired.
That sodium bisulfite is an antiplatelet aggregatory agent is shown by using a platelet aggregometer based on the technique of Born (above cited).
(§1) Platelet rich plasma from rabbit and men was prepared by the centrugation technique referenced in Example 13. Using ADP (adosine diphosphate) as a stimulus rapid aggregation of platelets occurred. […] This procedure is described in the article by Born in Nature, Vol. 194, pgs. 927-929 (1962).
(§2) Platelet rich plasma from rabbits and men was prepared by the centrugation technique referenced in Example 13. Using ADP (adosine diphosphate) arachidonic acid as a stimulus, rapid aggregation of platelets occurred. […] This procedure is described in the article by Born, Nature, Vol. 194, pgs. 927-929 (1962).

Series [7] has as its system human plasma. The series is classed as biochemical. This is another data set of the same source.
The test system of series [8] is platelet rich plasma. In words: Platelet aggregation in platelet rich plasma from injected rabbit (ex vivo). To be noted: injected with about 72 mg/kg of body weight; blood sample after 5 hours. The method, then:
A rabbit is injected with about +72 mg/kg of body weight of triethyl amine bisulfite. After a period of 5 hours, a blood sample was withdrawn and centrifuged at 1000 r.p.m. (220 g) for 10 minutes to give a platelet rich plasma. […] It is concluded that triethyl amine bisulfite is an agent which inhibits thrombotic condition formation in vivo.
A rabbit is injected with about 72 mg/kg of body weight of sodium formaldehyde bisulfite. After a period of 5 hours, a blood sample was withdrawn and centrifuged at 1000 r.p.m. (220 g) for 10 minuts to give a platelet rich plasma. […] It is concluded that sodium formaldehyde bisulfite is an agent which inhibits thrombus formation in vivo.

In series [9] the test system is rabbit platelet rich plasma. In words: Platelet aggregation in platelet rich plasma, platelet aggregometer (technique of Born). Format: cell-based. To be noted: platelet rich plasma from rabbit. The method, then:
as §1, §2

Series [10] relates to thrombus. In words: Antithrombotic effect in rabbit (Kelton et al). Format: in vivo. To be noted: 50 mg/kg. The source says:
Evaluation of the antithrombotic effect of sodium formaldehyde bisulfite was caried out on a rabbit as described in Kelton et al: "Thrombogenic Effect of High Dose Aspirin in Rabbits", Journal of Clinical Investigation", Volume 62, pages 892-895, 1978.

Series [11] deals with blood. In words: PT and PTT of blood after oral gavage. To be noted: orally by gavage about 50 mg/kg in two spaced doses (solution of Example X); after 1 day. The series is classed as in vivo, rabbit.
The mark [12] stands for this setting: continuous infusion for five hours.

In the case of `C[N+](C)(C)C` [Tetramethyl-ammonium sulfite], in series [1], the “platelet aggregation, adosine diphosphate (ADP) as a stimulous” value was “inhibited”. For the same compound, the “Factor IX (%)” value in [2] is on record as 20%. In series [3], the “Fibrinogen (%)” value worked out at 175%.
For the compound `O=S(=O)(O)CO` [Sodium formaldehyde bisulfite], the “PT” value worked out at 19.68 s in series [4]; 24.4 in series [4] (0.01 Molar, control 12.5); 19.50 s in series [4] (coded agents 0.5mg/ml, […], control 12.92). Further, the “PT REPLICATIONS I” value in series [4] (control 13.1 (14.1 for Sodium formaldehyde Bisulfite)) was found to be 20.5. In addition, the “PT (effect in words)” value in series [4] (in vitro, 0.5 mg/ml) is given as “effective”. Further, the “mortality of infused rabbits” value in series [5] (continuous infusion) was “died”. Moreover, the “radioactivity (I 125 fibrinogen) in damaged jugular vein of saline control rabbit relative to treated rabbit” value in [5] (setting [12]) is “more radioactivity”. In addition, the “thrombus formation in the jugular vein (conclusion in words)” value in series [5] (setting [12]) is reported as “definite positive effect of decreasing thrombus formation”. The “platelet aggregation, ADP (adosine diphosphate) as a stimulus” value in series [6] and in series [9] was “strong inhibition of platelet aggregation” throughout. Further, the “PTT” value in series [7] (0.5 mg/ml, two different days, control 42.6 / 42.10) stood at 56.30 s; in series [7] (0.01 Molar, control 33.4), 54.6; in series [7] (coded agents 0.5mg/ml, […], control 43.38), 58.60 s. Further, the “PTT REPLICATIONS I” value in [7] (control 38.2 (50.5 for Sodium formaldehyde Bisulfite)) turned out to be 63.5. In series [7] (in vitro, 0.5 mg/ml), the “PTT (effect in words)” value is “effective”. Further, in [8], the “aggregation of platelets in comparison with an untreated rabbit” value was “markedly decreased”. In [10], the “disappearance of the thrombus compared with a control animal” value was “the thrombus disappeared more rapidly”. In addition, the “PT and PTT values of the animal's blood compared with untreated control rabbit” value in series [11] is “lengthened”.
